# Experiments:
# [1] = system: human breast carcinoma cell line ZR-75-1; test: MTS cell viability assay, ZR-75-1
# Experimental: As a next step, we used MTS assay[27] to examine the effect of GO peptides on the viability of the four described cell cultures as a function of different treatment schemes. […] This treatment regimen is labeled 4 × 5 underneath the graph. Alternatively, we introduced 5 μM of peptide daily while exchanging the medium (denoted 4/5). Unlike the previous protocol, it avoids potential build-up of the peptide in the medium.
# The treatment protocols are: 4 × 5 – four daily doses of 5 μM delivered without exchanging the growth medium; 4/5 – four daily doses of 5 μM delivered with exchanged growth medium; 1 × 5, 1 × 10, 1 × 15, and 1 × 20 – a single dose of 5, 10, 15, or 20 μM, respectively. MTS reagent was added to the wells 96 h after the first (and sometimes the only) application of the peptide and the optical density at 492 nm was measured to determine the fraction of the surviving cells.
# The data are according to the MTS assay, where the optical density was measured 96 h after the application of the peptide.
# Cell survival was measured using CellTiter 96 AQueous One Solution Cell Proliferation Assay (MTS test, Promega, USA). Cells have been seeded in a 96-well flat-bottom plate in 100 μl of culture medium (10^3 cells/well for A549, HT-1080, dermal fibroblasts and eMSC or 5 × 10^3 cells/well for ZR-75-1) and allowed to attach for 24 h. The starting amount of cells was chosen to account for their growth rate and degree of spreading such as to avoid excessive dilution in the beginning of the experiment or control cell overgrowth toward the end. After 24 h, 10 μl of peptide stock solution or PBS (control) were added to the wells. After 96 h, 20 μl of the MTS-reagent were added to each well and 1–2 h later optical density was measured at the wavelength 492 nm using the 96-well plate reader (Titertek Multiskan, Labsystems, Finland). All experiments were conducted in duplicate or triplicate.
# HT-1080 cells = test: Rhodamine 123 mitochondrial membrane potential, HT-1080; format: cell-based, human
# Description: In broad terms, apoptosis is classified into two fundamental modes: mitochondrial pathway and death receptor pathway. In the former mechanism, apoptotic signals lead to a loss of mitochondrial membrane potential, termination of mitochondrial ATP synthesis, overproduction of reactive oxygen species (ROS) and their release into cytosol along with a number of pro-apoptotic proteins that are normally confined to the intermembrane space of the mitochondria. To determine whether this mechanism is relevant for GO-203-induced cell death, we have analyzed the time variation of mitochondrial membrane potential and cellular level of ROS over the time interval of 2 h following the addition of the peptide. Toward this goal, the cells were preloaded with Rhodamine 123 or carboxy-H2DCFDA fluorescent dyes, then washed, suspended in the growth medium, and treated with GO-203. The fluorescence was measured concurrently with the side angle light scatter.
# Only at 90–100 min we observe a moderate decrease of the fluorescence signal from the treated cells, which indicates the drop in mitochondrial membrane potential. As discussed above, the onset of apoptosis in HT-1080 occurs considerably earlier than that. […] Therefore we assume that mitochondrial membrane permeabilization (MMP) occurs relatively late in the game and is unlikely to be a key element of the GO-203-induced apoptosis.
# Finally, the same experimental scheme as described above for H2DCFDA/DCFDA measurements was also used with Rhodamine 123. […] The same observation has been made for ZR-75-1.
# The cells were seeded into 35-mm Nunc culture dishes (Thermo Scientific, USA) at 1.2 × 10^5 cells per dish and allowed to attach for 24 h. […] After that GO-203 was added directly to the suspension and cell fluorescence was measured by flow cytometry at multiple time points during the following 2 hours. […] Cell fluorescence was then immediately measured by flow cytometry. […]
# ZR-75-1 cells = test: FITC Annexin V / propidium iodide apoptosis assay, ZR-75-1; format: cell-based, human
# Experimental: Figure 3 GO-203-induced apoptosis in HT-1080 and ZR-75-1 cells as assessed by FITC Annexin V (AnV) and propidium iodide (PI) double staining. (A–D) Flow cytometry histograms for the cells incubated for 4 h with 10 μM of GO-203 and the untreated (control) cells. (E–H) Apoptotic fractions in the GO-203-treated and untreated (control) cells as a function of incubation time and GO-203 concentration; color coding is explained in the legend. TEXT PRINTED IN THE PICTURE: (B) GO-203: HT-1080: IV.(1.90 %); HT-1080: III.(52.62 %); HT-1080: I.(19.45 %); HT-1080: II.(26.04 %) | (D) GO-203: ZR-75-1: IV.(8.19 %); ZR-75-1: III.(8.65 %); ZR-75-1: I.(37.84 %); ZR-75-1: II.(45.32 %)
# Similarly fast apoptotic process is observed in ZR-75-1, although this cell line is less susceptible to the cytotoxic effect of GO-203. 4 h after administration of 10 μM dose, 39% of the cells remain healthy, 43% undergo early apoptosis, and 9% are in the late apoptosis stage. This proportion remains unchanged after 24 h. The fact that GO-203-induced apoptosis occurs rapidly in both sensitive and relatively insensitive cell lines is relevant in the context of its cytotoxic mechanism (discussed later in the text).
# Also illustrated in Fig. 3G,H is the dose-dependent response of the treated cells. […] It is possible that apoptotic ZR-75-1 cells in quadrant II undergo disintegration instead of moving to quadrant III, Fig. 3D. Importantly, the Annexin V data are consistent with the results of the MTS assay which registers limited damage to the ZR-75-1 cells, see Fig. 2.
# The adherent cells were rinsed with PBS, harvested using trypsin-EDTA solution and suspended in the growth medium. To analyze cell cycle phase distribution, 200 μg/ml of saponin (Fluka, USA), 250 μg/ml RNase A, and 50 μg/ml of propidium iodide (both Sigma-Aldrich, USA) were added to each sample tube, thus obtaining DNA stain buffer. After 1 h incubation at room temperature, the samples were analyzed by flow cytometry. To detect apoptosis by flow cytometry, CellEvent Caspase-3/7 Green Flow Cytometry Assay Kit (Thermo Fisher Scientific, USA) and Annexin-V FITC conjugate (BD Biosciences, USA) in combination with propidium iodide have been employed following the manufacturer’s protocols.
# Cell fluorescence was measured using CytoFLEX (Beckman Coulter, USA) flow cytometer equipped with 3 lasers (405, 488 and 633 nm). Cells were gated on FSC/SSC to remove debris. Mean fluorescence intensity from 10,000 cells was acquired.
# [2] = suspended HT-1080, one-time 5 μM dose
# [3] = 10 μM, 4 h, representative plot Fig. 3D
# [4] = 10 μM, 4 h after administration
substance,measurement,setting,value
"[R]9CQCRRKN [GO-203, in clinical trials]",Cell viability (MTS),"[1]; 1 × 5: single dose of 5 μM, 96 h",essentially inconsequential
same,Cell viability (MTS),"[1]; 1 × 20: single dose of 20 μM, 96 h",substantially cytotoxic
same,Cell viability (MTS),"[1]; 4/5: four daily doses of 5 μM with exchanged growth medium, 96 h",inefficient
same,Cell viability (MTS),"[1]; 4 × 5: four daily doses of 5 μM without exchanging growth medium, OD 492 nm 96 h after first application",considerable damage
same,Mitochondrial membrane potential (Rhodamine 123),"HT-1080 cells; HT-1080, 30 min after application, same scheme as H2DCFDA/DCFDA measurements",fully maintained
same,Time for which mitochondrial retention of Rhodamine 123 remains the same as control,HT-1080 cells; [2],at least 70 min
same,Time of moderate decrease of Rhodamine 123 fluorescence (drop in mitochondrial membrane potential),HT-1080 cells; [2],90 to 100 min
same,quadrant I fraction (Annexin V/PI dot plot),ZR-75-1 cells; [3],37.84%
same,quadrant II fraction (Annexin V/PI dot plot),ZR-75-1 cells; [3],45.32%
same,quadrant III fraction (Annexin V/PI dot plot),ZR-75-1 cells; [3],8.65%
same,quadrant IV fraction (Annexin V/PI dot plot),ZR-75-1 cells; [3],8.19%
same,early apoptosis (Annexin V/PI),ZR-75-1 cells; [4],43%
same,late apoptosis stage (Annexin V/PI),ZR-75-1 cells; [4],9%
same,healthy cells (Annexin V/PI),"ZR-75-1 cells; 10 μM, 4 h after administration (unchanged after 24 h)",39%
same,viable cells at highest dose (Annexin V/PI),ZR-75-1 cells; 20 μM,a large proportion of the cells remains viable
